Measured values as given in patent US20120010178A1, “METHODS AND COMPOUNDS FOR TREATMENT OF NEURODEGENERATIVE DISORDERS” (PRESIDENT AND FELLOWS OF HARVARD COLLEGE, priority 2008, published 2012).
“Also recorded” adds a separate entry of the source.

Experiments:
SMN [1] = assay: SMN immunofluorescence quantification (cytoplasm, nucleus, GEMs) in fibroblasts from SMA patients; format: cell-based, human; settings: for levels of cytoplasmic and nuclear SMN (in words): substance alone
In short: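 SMN immunostained and imaged by automated confocal microscopy; per-cell cytoplasmic and nuclear SMN intensity and GEM number and intensity quantified. PFA fixation used for screening.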

SMN [2] = assay: SMN levels in mouse (ES-cell derived) motor neurons; format: cell-based; settings: for SMN levels in motor neurons (in words): mouse motor neurons
Description: Mouse HB9-GFP derived SMN deficient motor neuron cells were incubated for 2 days with compounds from libraries and collections.
Motor neurons were produced from mouse ES-cells expressing cherry fluorescent protein (CFP) under the control of the motor neuron-selective Hb9 promoter, as previously described (Wichterle et al., 2002).
GFP expressing motor neurons were derived from mouse ES cells as described below. After growing for approximately 1 week, motor neurons were treated with allsterpaullone. Two days after treatment with allsterpaullone, cells were fixed and stained with SMN antibody or GFP antibody.
mES cells were differentiated into motor neurons according to methods adapted from Wichterle et. al., Cell (2002), 110:385-397. Briefly, mES cells were grown to 70-80% confluence in 10-cm plates (Falcon) in ES cell medium. To form embryoid bodies, cells were washed once with PBS to eliminate mES medium and then incubated with 1 ml of 0.25% trypsin (GIBCO) for 5-10 min at 21-25° C. (RT). Cells were then resuspended in 10 ml of DM1 medium (DMEM-F12, GIBCO), 10% knockout serum (GIBCO), penicillin, streptomycin, glutamine (GIBCO) and 2-mercaptoethanol (GIBCO), counted and plated at a concentration of 200,000 cells per ml in Petri dishes (Falcon). Two days later, embryoid bodies were collected and resuspended into new Petri dishes containing DM1 medium supplemented with RAc (100 nM; stock 1 mM in DMSO, Sigma) and HhAg (100 nM). […] treatment was repeated with the same concentration of RAc (100 nM) and high concentration of HhAg (1 μM). On day 6, the embryoid bodies were collected in a 15-ml Falcon tube, and incubated in Earle's balanced salt solution with 20 units of Papain and 1,000 units of DNase I (Worthington Biochemical) for 10 min at 37° C. The mixture was then triturated with a 10-ml pipette and centrifugated for 5 min at 800 rpm. The resulting cell pellet was washed with PBS and resuspended in F12 medium (F12 medium, GIBCO) with 2% fetal bovine serum (GIBCO), B-27 supplement (GIBCO), (GDNF and BDNF, 20 ng ml^−1, R&D Systems). The cells were counted and plated on poly-ornithine coated 96-well plates (VWR).

[3] = target: T1, GSK3b (Ser-9 phosphorylation) (Homo sapiens, UniProt P49841); assay: p-GSK(Ser9) phosphorylation in patient fibroblasts (western blot / immunofluorescence); format: cell-based; settings: patient fibroblasts
T1 construct: endogenous in cells; host or cells: SMA patient fibroblasts (GM09677), starved in 0.5% FBS before treatment
Description: Compounds were stored at appropriate temperature and dissolved accordingly to the manufacturers (Tocris, Enzo, EMD and Sigma-Aldrich) in DMSO (Sigma-Aldrich), unless stated otherwise (Monensin Na in EtOH, DMPQ in water). Growth factors and PDGF neutralizing antibodies (R&D Systems) were reconstituted with buffers recommended by the supplier. For generation of the dose curves, 1×10^3 fibroblasts were plated on to 96-well Greiner Senso plates (VWR) and treated with compounds on the second day then fixed and stained at the indicated time points. For GSK inhibitors and performing p-GSK3b(Ser9) detection, two days after plating growth media containing 5% FBS was replaced to the media with FBS reduced down to 0.5%, to starve cells for 72 hours. Addition of the GSK inhibitors was done in 5% FBS enriched media. As previously described, starvation increases levels of constitutively activate GSK3b kinase, allowing to achieve a more dramatic inhibitory effect when GSK inhibitors are added together with growth factors that are also known to inhibit GSK by Ser-9 phosphorylation. […] For all compounds and growth factors control wells received solvent in amount equivalent to the highest concentration of the compound in a dose curve. For PDGF inhibitory studies, cells were pre-treated with kinase inhibitors for 2 hours and PDGF was added with a fresh kinase inhibitor solution and incubated for an additional 3 days.

T1 sequence (P49841 whole entry): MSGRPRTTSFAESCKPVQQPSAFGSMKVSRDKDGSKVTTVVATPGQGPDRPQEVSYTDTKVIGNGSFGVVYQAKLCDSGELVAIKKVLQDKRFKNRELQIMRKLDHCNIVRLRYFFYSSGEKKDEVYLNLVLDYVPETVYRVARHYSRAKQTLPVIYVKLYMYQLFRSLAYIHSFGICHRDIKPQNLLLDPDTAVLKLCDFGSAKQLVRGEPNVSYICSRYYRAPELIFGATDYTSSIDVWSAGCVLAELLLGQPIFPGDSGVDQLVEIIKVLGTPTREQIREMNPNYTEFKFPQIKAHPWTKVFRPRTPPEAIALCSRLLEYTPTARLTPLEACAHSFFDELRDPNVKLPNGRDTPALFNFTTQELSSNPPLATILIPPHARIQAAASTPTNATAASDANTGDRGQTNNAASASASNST

Row | Molecule | levels of cytoplasmic and nuclear SMN (in words) (SMN [1]; SMA patient fibroblasts) | levels of cytoplasmic and nuclear SMN (in words) (SMN [1]; SMA patient fibroblasts, listed as alsterpaullone) | effect on SMN level (SMN [1]; fed cells (10% serum, not starved)) | effect on SMN level (SMN [1]; pre-starved cells that received fresh media with 10% serum along with compound) [fold] | effect on SMN level (SMN [1]; pre/post-starved cells (0.5% serum)) [fold] | Gem intensity in neurons (in words) (SMN [2]; ES-cell derived neurons) | SMN levels in motor neurons (in words) (SMN [2]) | SMN levels in motor neurons (in words) (SMN [2]; listed as allsterpaullone) | p-GSK-Ser9 phosphorylation (in words) [3] | fold increase in cytoplasmic SMN (SMN [1]; SMA patient fibroblasts) [fold] | fold increase in nuclear SMN (SMN [1]; SMA patient fibroblasts) [fold] | levels of cytoplasmic and nuclear SMN (in words) (SMN [1]; SMA patient fibroblasts, listed as platelet derived PDGF) | Avg. SMN fold increase (SMN [1]; human PDGF isoforms, SMA patient fibroblasts)
1 | O=C1Cc2c([nH]c3ccc([N+](=O)[O-])cc23)-c2ccccc2N1 [Alsterpaullone] | increase SMN levels; also recorded: Most active compounds | able to elevate SMN in patient fibroblasts | weak effect | 1.9 | 1.6 | increases Gem intensity in neurons; also recorded: main increase was observed in Gem Intensity parameter | increases level of SMN in neurons; also recorded: able to elevate Smn | Increased SMN levels | increase in a dose dependent manner | – | – | – | –
2 | PDGF | increase in SMN levels | – | – | – | – | – | no effect on elevating SMN | – | phosphorylates GSK313 in a dose-dependent manner | 2.3 | 1.95 | strongest activator | 2-2.3 fold
